Patent publication US8603980B2, “Glutamate receptor antagonists and methods of use” (The Johns Hopkins University, priority 2007, dated 2013)
Entries after “also recorded” stand apart in the source; their conditions may differ. Where two headings read alike, the source gives them in different places.

Tests used:
[1] = tested on: human platelets; experiment: Platelet activation by FACS (PAC-1 antibody binding or surface P-selectin); type: cell-based; conditions: for AMPA mediated increase in TRAP induced platelet activation: substance added before AMPA, CNQX 100 μM, JST 1 μM
Description: It was next determined whether glutamate is a mediator of platelet activation.
Blood was collected into citrate anticoagulant, platelets were isolated as platelet rich plasma (PRP) by centrifugation at 180 g for 15 min, and then diluted in Tyrode's buffer 1:20 for activation flow cytometry studies. […] Washed platelets were resuspended in Tyrode's.

[2] = tested on: AMPA receptor subunits GluR1-4 and kainate receptor subunit GluR5; conditions: cited from earlier work
[3] = tested on: platelets; experiment: Intracellular sodium in platelets (SBFI dye, FACS); type: cell-based, human; conditions: for Na+ level / influx in platelets treated with TRAP alone: amiloride 100 μM
Description: (§1) Human platelets were isolated from healthy volunteers who had not taken aspirin or NSAID within 10 d, under a protocol approved by The Johns Hopkins University School of Medicine Institutional Review Board (JCCI). Blood was collected into citrate anticoagulant, platelets were isolated as platelet rich plasma (PRP) by centrifugation at 180 g for 15 min, and then diluted in Tyrode's buffer 1:20 for activation flow cytometry studies. To determine surface GluR1, a Fc Blocking antibody was added to reduce non-specific background antibody binding. Mouse platelets were isolated by collection into heparinized Tyrode's buffer and isolated by centrifugation. Washed platelets were resuspended in Tyrode's. Intracellular ion concentrations were performed after incubating platelets diluted 1:20 in Tyrode's buffer with SBFI for 45 minutes prior to experiments.

[4] = tested on: megakaryocytes; experiment: Whole-cell recordings from freshly isolated megakaryocytes; type: cell-based, mouse
Description: All procedures using animals were approved by the University of Miyazaki Institutional Animal Care and Use Committee. Megakaryocyte preparation was performed as reported previously (43). Briefly, mouse bone marrow was flushed with Na+-rich external solution (Na+-ES, 150 mM NaCl, 1 mM CaCl2, and 10 mM HEPES, pH adjusted to 7.2 using NMDG-OH). Cells were dispersed by repetitive pipetting, washed three times by gentle centrifugation, resuspended in Na+-ES and used within 90 min of isolation.
Whole-cell recordings were obtained from freshly isolated megakaryocytes using an intracellular solution of the following composition: 150 mM CsCl, 1 mM ethylene glycol bis(-aminoethylether)-N,N,N′,N′-tetraacetic acid (EGTA) and 10 mM HEPES. The pH was adjusted to 7.3 using NMDG-OH. The patch-clamp procedures were similar to those described previously (43). Briefly, the experiments were performed in the tight seal whole-cell configuration at room temperature and electrical signals were acquired with an HEKA EPC-7 (Darmstadt, Germany). The pipette resistances ranged between 2 MΩ and 3 MΩ. Current-voltage relationships (I-V curves) were obtained by clamping the cell to different potentials in 30 mV increments (−30, 0 and +30 mV; each of 35 ms duration) from a holding potential of −60 mV. I-V curves obtained prior to the application of the agonists were subtracted from those (typically two) obtained in the presence of the agonists. The current responses were monitored on a chart recorder (WR7700, Graphtec, Tokyo, Japan) through a lowpass filter (200 Hz). Chemicals and reagents used were purchased from either Sigma (St. Louis, Mo.) or Wako Pure Chemicals (Osaka, Japan). […] The perfusion pipette was located within 30 μm of the cell and the puff pressure was adjusted to obtain rapid and effective agonist application (<10 msec).

[5] = tested on: platelets; experiment: Platelet aggregation (aggregometer) in response to TRAP; type: cell-based, human; conditions: for final aggregation: exogenous addition
Description: as §1, with “The functional relevance of targeting platelet AMPAR signaling was assayed by first measuring aggregation in response to TRAP (10 μM) after incubating platelets with control or CNQX (1-100 μM). […] Human” for “Human”

[6] = Intravital microscopy of FeCl3 induced thrombosis in mesenteric arterioles; type: in vivo, mouse; conditions: for time to total vessel occlusion: FeCl3 injury
[7] = Tail bleeding time
Description: Mice were treated intravenously (i.v.) with control PBS or CNQX (0.1 mg/kg) and 20 mins later tail bleeding times were determined.
6 week old male mice were anesthetized with ketamine and xylazine (80/13 mg/kg) and injected i.v. with either PBS or CNQX:HBC, 0.1 mg/kg of active CNQX. Twenty minutes later the distal 3 mm of the tail was amputated, immersed in 37° C. saline and the time to visual cessation of bleeding recorded.

[8] = moderate TRAP (5 μM), platelets pre-incubated with substance
[9] = i.v. 20 mins before FeCl3, vs PBS

O=C(O)C1CN(CCCP(=O)(O)O)CCN1 (racemic) [CPP, (±)-3-(2-Carboxypiperazin-4-yl)propyl-1-phosphonic acid]
glutamate mediated increase in TRAP induced platelet activation [1]: does not inhibit

N[C@@H](Cn1nc(Cl)c(=O)[nH]c1=O)C(=O)O [5-chloro-6-azawillardiine]
selectivity for GluR4 over GluR1 and 2 ([2]; at the cost of selectivity for AMPA over kainate receptors): some selectivity

Cc1onc(O)c1C[C@H](N)C(=O)O [AMPA, alpha(α)-amino-3-hydroxy-5-methyl-4-isoxazolepropionic acid]
Na+ influx in response to TRAP after NHE inhibition ([3]; AMPA added after amiloride (100 μM)): restores Na+ influx
platelet activation in response to thromboxane mimetic U46619 [1]: increases platelet activation
current on rapid application without cyclothiazide [4]: did not induce a measurable current
inward current following rapid perfusion [4]: 8.6+/−4.5 pA
reversal potential of the agonist-induced current [4]: ~0 mV
platelets aggregated at 1 min post-TRAP ([5]; AMPA 1 mM pre-treatment): approximately 75%
rate of early aggregation ([5]; AMPA 1 mM, TRAP 10 μM): increases
final aggregation [5]: no effect

CC(C)(C)c1o[nH]c(=O)c1CC(N)C(=O)O (stereo not shown) [ATPA]
platelet activation by FACS [1]: increases platelet activation

N#Cc1cc2[nH]c(=O)c(=O)[nH]c2cc1[N+](=O)[O-] [CNQX, -cyano-7-nitroquinoxaline-2,3-dione]
Na+ concentration in platelets treated with AMPA and TRAP ([3]; CNQX 100 μM): decreases Na+ concentrations
Na+ level / influx in platelets treated with TRAP alone ([3]; CNQX 100 μM): decreases Na+ levels
selectivity for AMPAR subunits versus KA receptor subunits [2]: 20-150 fold
TRAP induced platelet activation at low antagonist concentration ([1]; 10 μM CNQX): significantly decreases platelet activation
TRAP induced platelet activation: P-selectin expression ([1]; P-selectin by FACS): decreases platelet activation
TRAP induced platelet activation (PAC-1 antibody binding) [1, 8]: inhibits
AMPA mediated increase in TRAP induced platelet activation [1]: inhibits the effects of AMPA
AMPA induced inward current in presence of antagonist ([4]; CNQX 30 μM): blocked
platelet aggregation in response to TRAP ([5]; TRAP 10 μM, CNQX 1-100 μM): dose dependently reduces platelet aggregation
time to total vessel occlusion [6]: prolonged
time to platelet adhesion (greater than 10 platelets adherent for greater than 10 sec) [6, 9]: prolonged
time to thrombus formation (first stable thrombus greater than 20 μm) [6, 9]: prolonged
average tail bleeding time ([7]; 0.1 mg/kg i.v., 20 mins before): approximately 600 sec

NCCCNCCCCNCCC(=O)NCCCCCNC(=O)[C@H](CC(N)=O)NC(=O)Cc1ccc(O)cc1O [JST]
AMPA mediated increase in TRAP induced platelet activation [1]: no effect

C=C(C)[C@H]1CN[C@H](C(=O)O)[C@H]1CC(=O)O [KA, kainic acid]
TRAP induced platelet activation (PAC-1 antibody binding) [1, 8]: dose dependently increases
inward current following rapid perfusion ([4]; 100 μM, cyclothiazide in the recording solution): 3.1+/−0.9 pA
current on rapid application without cyclothiazide ([4]; 0.1 or 1 mM, no cyclothiazide): did not induce a measurable current
reversal potential of the agonist-induced current ([4]; I-V curves, cyclothiazide, no obvious rectification): ~0 mV

N[C@@H](Cn1ccc(=O)n(Cc2ccccc2C(=O)O)c1=O)C(=O)O [UBP302]
platelet activation by FACS [1]: dose dependently reduces platelet activation
time to total vessel occlusion [6]: prolonged time to total vessel occlusion
bleeding time in mice ([7]; mouse, in vivo): prolongs bleeding time

N=C(N)NC(=O)c1nc(Cl)c(N)nc1N [amiloride]
Na+ level / influx in platelets treated with TRAP alone ([3]; CNQX 100 μM): reduces Na+ influx

N[C@@H](CCC(=O)O)C(=O)O [glutamate]
ATP mediated platelet activation [1]: not increased
P2Y agonist 2-Me-ADP induced platelet activation [1]: increases
TRAP induced platelet activation (PAC-1 antibody binding) [1]: significantly increases platelet activation; also recorded: dose dependently increases
TRAP induced platelet activation: P-selectin expression [1]: increases agonist induced platelet activation
collagen induced platelet activation [1]: no effect
epinephrine induced platelet activation [1]: significantly increases
increase in platelet activation following low concentration TRAP versus control [1]: approximately two times greater
increase in platelet activation following low concentration thromboxane mimetic versus control [1]: approximately three times greater than control
increase of TRAP induced platelet activation compared to control treated platelets [1]: greater than 50%
platelet activation at high TRAP concentration [1]: no effect
platelet activation in response to thromboxane mimetic U46619 [1]: dose dependently increases
resting platelet activation (PAC-1 antibody binding) [1]: does not increase
final aggregation [5]: no effect
